# From patent US20140031427A1, “COMBINATIONS OF ADAPALENE AND BENZOYL PEROXIDE FOR TREATING ACNE LESIONS” (GALDERMA RESEARCH & DEVELOPMENT, priority 2006, published 2014)
# Values joined by “and” are separate entries in the source; they are usually repeats but may differ in a detail not shown here. Equal entries are not always repeated.
# Key:
# [1] = even in the presence of light; cited from earlier work
# acne lesions = assay: Clinical study of topical gel combining adapalene + BPO vs monads and vehicle, 517 patients, 12 weeks; type: in vivo, human; details: for reduction in lesions: all lesions, week 12, rounded values in text; for Degree of success / Progress of the lesions (as median absolute numbers): Number of inflammatory lesions / Progress of the lesions (as median absolute numbers): Number of non-inflammatory lesions / Progress of the lesions (as median absolute numbers): Total number of lesions / Progress of the lesions (median percentages): Number of inflammatory lesions / Progress of the lesions (median percentages): Number of non-inflammatory lesions / Progress of the lesions (median percentages): Total number of lesions: week 12, ITT, adapalene 0.1%, BPO 2.5%; for Degree of success: % patients clear or almost clear, gels once a day
# Experimental: A clinical study for confirmation of efficacy was performed for a topical gel combining adapalene+benzoyl peroxide (BPO). This gel has the following formulation (expressed as % weight/total weight): The clinical study was a multi-center, randomized, double-blind study in parallel groups, to evaluate the tolerance and the efficacy of the above formulation, in comparison with its own individual active substances placed at the same doses in gels of the same formula as that of the fixed combination (individual formulae referred to as “monads”) and in comparison with the gel vehicle (placebo formula): adapalene gel (0.1%), BPO gel (2.5%) and vehicle gel. All the treatments were applied once a day for 12 weeks, to 517 patients suffering from acne. The main efficacy criteria were: the degree of success, defined as the percentage of patients considered as being “clear”, i.e., the patient has no more acne lesions (neither comedones nor inflammatory lesions), reflecting an improvement in the patient's clinical condition, or “almost clear” on the evaluation scale; the reduction of the percentage of inflammatory and non-inflammatory lesions after 12 weeks of treatment.
# acne vulgaris lesions = assay: Pooled analysis of three adapalene-BPO clinical studies (3855 patients): efficacy and synergy; type: in vivo, human; details: adapalene 0.1%, BPO 2.5%; for net effect (active minus vehicle), total lesions: week 1; for success rate: week 12, % patients with IGA clear or almost clear
# Experimental: (§1) Three multicenter, double-blind, randomized and controlled studies on the efficacy and safety of adapalene-BPO were conducted in 157 centers in the U.S, Puerto Rico, Canada, Germany, Poland and Hungary.^19-21 Patients were randomized to receive adapalene 0.1%-BPO 2.5% (Epiduo®, Galderma Laboratories), adapalene 0.1%, BPO 2.5% or vehicle once daily in the evening for 12 weeks. Adapalene and BPO used in the studies were formulated in the same gel vehicle as adapalene-BPO, instead of as the respective commercial products (Differin® and Benzac®, Galderma Laboratories). Efficacy and safety assessments were performed at each study visit, occurred at baseline, weeks 1, 2, 4, 8 and 12.
# Eligible patients were 12 years or older with 20 to 50 inflammatory lesions (IL), 30 to 100 non-inflammatory lesions (NIL), no cysts and no more than 1 nodule on the face. […] Lesion counts were performed on the face only excluding the nose. Specified washout periods were required for patients taking certain topical and systemic treatments. Patients were excluded if they received systemic acne treatment or had dermatological conditions requiring interfering treatments. Women were excluded if they were pregnant, nursing, or planning a pregnancy. Men were excluded if they had facial hair that would interfere with assessments.
# IGA was evaluated on a scale from 0 (clear: residual hyperpigmentation and erythema may be present) to 4 (severe: entire face is involved, covered with comedones, numerous papules and pustules, and few nodules and cysts).
# (§2) Data from the three studies were pooled and analyzed. Efficacy was evaluated in the intent-to-treat (ITT) population, which included all patients who were randomized and dispensed study medicine. Safety was assessed in the safety population, which included all patients who were randomized and treated at least once.
# Efficacy was evaluated by the Cochran-Mantel-Haenzsel (CMH) test, using general association for success rate and row mean differences by relative to identified distribution (RIDIT) transformed scores for percent lesion change. All tests were 2-sided.
# Synergy was defined as the efficacy of combination (adapalene-BPO) greater than the sum of efficacy of individual components (adapalene alone and BPO alone). We took into account the vehicle effect by deducting it from the effect of treatments:^25
# Net effect of active agent=effect of active agent−effect of vehicle Synergy=Net effect of adapalene-BPO−(Net effect of adapalene+Net effect of BPO)>0
# The degree of synergy was evaluated based on the contribution of synergy to efficacy (net effect) of adapalene-BPO:
# Degree of synergy(%)=(synergy/Net effect of adapalene-BPO)×100
# [2] = Pooled analysis of three adapalene-BPO clinical studies: safety (adverse events, local facial tolerability); type: in vivo, human; details: 12 weeks, safety population; adapalene 0.1%, BPO 2.5%
# Experimental: as §1
# Safety of the treatments was evaluated through reporting of adverse events (AE) and assessments of local facial tolerability. At each study visit, the investigators rated signs of erythema, scaling, dryness and stinging/burning on a scale from 0 (none) to 3 (severe).
# as §2
# TPA-induced ear edema = assay: Anti-inflammatory evaluation in TPA-induced ear oedema model; type: in vivo, Balb/c mice; details: T+6 hours
# Experimental: The study was carried out with 45 (5 par groups) female 9 weeks aged Balb/c ByJIc mice.
# The Edema was induced by a single application of 20 μl of TPA dissolved in acetone at 0.01%.
# The treatment was administrated by single topical application of tested compounds dissolved in TPA at 0.01% (groups 3, 4, 5, 6 and 7) and dissolved in TPA 0.01%+BPO (groups 8, 9 and 10).
# The treatments activity was measured by inflammation evaluation with ear thickness at T+6 hours.
# [3] = Adapalene at 0.1% alone in TPA 0.01%
# [4] = BPO at 2.5% (alone or with adapalene at 0.1%) in TPA 0.01%
# [5] = BPO at 5% (alone or with adapalene at 0.1%) in TPA 0.01%
# [6] = BPO at 10% (alone or with adapalene at 0.1%) in TPA 0.01%
SMILES,reduction in lesions (acne lesions),Degree of success (acne lesions),Progress of the lesions (as median absolute numbers): Number of inflammatory lesions (acne lesions),Progress of the lesions (as median absolute numbers): Number of non-inflammatory lesions (acne lesions),Progress of the lesions (as median absolute numbers): Total number of lesions (acne lesions),Progress of the lesions (median percentages): Number of inflammatory lesions (acne lesions),Progress of the lesions (median percentages): Number of non-inflammatory lesions (acne lesions),Progress of the lesions (median percentages): Total number of lesions (acne lesions),"net effect (active minus vehicle), total lesions (acne vulgaris lesions)",success rate (acne vulgaris lesions),percentage of patients who experienced treatment-related AEs [2],other results
"COc1ccc(-c2ccc3cc(C(=O)O)ccc3c2)cc1C12CC3CC(CC(C3)C1)C2 [Adapalene, 6-[3-(1-Adamantyl)-4-methoxyphenyl]-2-naphthoic acid]",35%,15.5%,−13.0,−17.0,−29.0,−45.7%,−33.3%,−35.4%,1.4%,20.0%,15.3%,stability when combined with BPO [1]: remains stable; Degree of success (acne lesions; listed as adapalene): 16%; Ear edema Mean (TPA-induced ear edema; [3]): 23.40; Inhibition vs TPA (%) (TPA-induced ear edema; [3]): 13% and 12.7%
"O=C(OOC(=O)c1ccccc1)c1ccccc1 [BPO, benzoyl peroxide]",36%,15% and 15.4%,−13.0,−16.0,−27,−43.6%,−36.4%,−35.6%,2.4%,23.1%,8.5%,Ear edema Mean (TPA-induced ear edema; [4]): 22.40; Inhibition vs TPA (%) (TPA-induced ear edema; [4]): 16% and 16.4%; Ear edema Mean (TPA-induced ear edema; [5]): 20.40; Inhibition vs TPA (%) (TPA-induced ear edema; [5]): 24% and 23.9%; Ear edema Mean (TPA-induced ear edema; [6]): 16.20; Inhibition vs TPA (%) (TPA-induced ear edema; [6]): 40% and 39.6%
